We go through five compounds from PMC12487869, “Toward Imaging of the GABA Transporter Type 1 In Vivo: Quantitative Evaluation of 4 Novel PET Radiotracers in Nonhuman Primates” (Journal of Nuclear Medicine, 2025).

Series [1] deals with GABAA receptor α5 subtype. Set-up: method as in PMID 30102960, PMID 32578977. Particulars: cited from earlier work.
Series [2] concerns the target T1, GAT-1 (Macaca mulatta, UniProt H9ELS5).
T1 construct: from tissue; host or cells: brain of living rhesus monkeys (in vivo PET)
Briefly: Occupancy plots from baseline and tiagabine blocking PET scans (occupancy, VND, BPND). It counts as in vivo, rhesus monkeys (Macaca mulatta). The settings on record: for VND: occupancy plot; for Occupancy: tiagabine 0.5 mg/kg occupancy measured with this radiotracer. The procedure: (§1) Before each scan, each monkey was sedated with alfaxalone (2 mg/kg), midazolam (0.3 mg/kg), and dexmedetomidine (0.01 mg/kg), and anesthesia was maintained with 1.5%–2.5% isoflurane. Heart rate, blood pressure, respiration rate, and oxygen saturation were monitored continuously. An intravenous line was placed in the saphenous or cephalic vein for delivery of the radiotracer, as well as tiagabine during blocking studies (0.5 mg/kg administered 19 ± 4 min before radiotracer injections). A catheter was placed in the radial or tibial artery for blood sampling.
Occupancy plots ([26]) were used to estimate tiagabine occupancy and the nondisplaceable volume of distribution (VND). This VND value was used to compute the nondisplaceable binding potential (BPND = VT/VND − 1). To compare the performance between 2 radiotracers, a Guo plot ([27]) was created, using baseline VT values, to assess the relative affinity and BPND values of each radiotracer.

The nature of series [3]: Plasma free fraction (fp), ultrafiltration method. The settings on record: measured in triplicate per scan, mean ± SD. It counts as in vitro ADME, rhesus monkeys (Macaca mulatta). The procedure:
The plasma free fraction (fp) for each scan was measured in triplicate using the ultrafiltration method and calculated as the ratio of radioactivity in the filtrate to that in the plasma ([24]).

For series [4], the target named is T1, GAT-1. Kind of series: PET brain imaging with kinetic modeling (1TCM), baseline and tiagabine blocking scans. It counts as in vivo, rhesus monkeys (Macaca mulatta). The settings on record: for Median VT across ROIs: 1TCM. The procedure:
Twenty scans were acquired from 4 rhesus monkeys (Macaca mulatta). Each monkey underwent baseline and blocking scans with ^18F-GATT-31, ^18F-GATT-34, ^18F-GATT-39, or ^18F-GATT-44 (Fig. 1) on a Focus-220 small-animal PET scanner (Siemens Healthineers).
as §1
Before injection, a transmission scan was acquired. Starting with injection of the radiotracer, PET emission data were acquired in list-mode format and binned into 45 frames (6 × 30 s, 3 × 1 min, 2 × 2 min, and 34 × 5 min).
For region-of-interest (ROI) definition, each PET image was registered to an in-house rhesus monkey anatomical MRI template using the concatenation of a rigid-body transformation between the summed PET image (0–10 min) and corresponding monkey’s MRI (using the FMRIB Linear Image Registration Tool) and a nonlinear transformation matrix estimated between the monkey’s MRI and the MRI template (BioImage Suite software version 3.01). Regional time–activity curves were extracted for the following 11 ROIs: brain stem, caudate, cerebellum, cingulate cortex, frontal cortex, hippocampus, insula, occipital cortex, putamen, temporal cortex, and thalamus.
For each baseline and blocking scan, kinetic analysis was performed using a 1-tissue compartment model (1TCM), a reversible 2-tissue compartment model (2TCM; k4 > 0), and an irreversible 2-tissue compartment model (2TiCM; k4 = 0), including a blood volume fraction (Vb) term and a time-delay term. Vb was estimated for each time–activity curve using the whole-blood curve fitted with a sum of exponentials. The time delay (Δt) between the input function and the brain was estimated by fitting the first 10 min of the whole-brain time–activity curve to a 1TCM with 3 parameters: K1, Vb, and Δt (k2 was set to 0 because of the negligible radiotracer washout during the first 10 min). This estimated time delay value was then used in the time–activity curve fits. The primary parameters of interest were the influx constant (K1, expressed in microliters per minute per cubic centimeter, since values were low), the volume of distribution (VT, expressed in milliliters per cubic centimeter), and the net influx constant (Ki, expressed in milliliters per minute per cubic centimeter) for 2TiCM.

In a further series the target is P-glycoprotein (PgP) (Homo sapiens, UniProt P08183). Briefly: Efflux by P-glycoprotein. Type of series: in vitro ADME.
Chain of P-glycoprotein (PgP) (P08183 whole entry): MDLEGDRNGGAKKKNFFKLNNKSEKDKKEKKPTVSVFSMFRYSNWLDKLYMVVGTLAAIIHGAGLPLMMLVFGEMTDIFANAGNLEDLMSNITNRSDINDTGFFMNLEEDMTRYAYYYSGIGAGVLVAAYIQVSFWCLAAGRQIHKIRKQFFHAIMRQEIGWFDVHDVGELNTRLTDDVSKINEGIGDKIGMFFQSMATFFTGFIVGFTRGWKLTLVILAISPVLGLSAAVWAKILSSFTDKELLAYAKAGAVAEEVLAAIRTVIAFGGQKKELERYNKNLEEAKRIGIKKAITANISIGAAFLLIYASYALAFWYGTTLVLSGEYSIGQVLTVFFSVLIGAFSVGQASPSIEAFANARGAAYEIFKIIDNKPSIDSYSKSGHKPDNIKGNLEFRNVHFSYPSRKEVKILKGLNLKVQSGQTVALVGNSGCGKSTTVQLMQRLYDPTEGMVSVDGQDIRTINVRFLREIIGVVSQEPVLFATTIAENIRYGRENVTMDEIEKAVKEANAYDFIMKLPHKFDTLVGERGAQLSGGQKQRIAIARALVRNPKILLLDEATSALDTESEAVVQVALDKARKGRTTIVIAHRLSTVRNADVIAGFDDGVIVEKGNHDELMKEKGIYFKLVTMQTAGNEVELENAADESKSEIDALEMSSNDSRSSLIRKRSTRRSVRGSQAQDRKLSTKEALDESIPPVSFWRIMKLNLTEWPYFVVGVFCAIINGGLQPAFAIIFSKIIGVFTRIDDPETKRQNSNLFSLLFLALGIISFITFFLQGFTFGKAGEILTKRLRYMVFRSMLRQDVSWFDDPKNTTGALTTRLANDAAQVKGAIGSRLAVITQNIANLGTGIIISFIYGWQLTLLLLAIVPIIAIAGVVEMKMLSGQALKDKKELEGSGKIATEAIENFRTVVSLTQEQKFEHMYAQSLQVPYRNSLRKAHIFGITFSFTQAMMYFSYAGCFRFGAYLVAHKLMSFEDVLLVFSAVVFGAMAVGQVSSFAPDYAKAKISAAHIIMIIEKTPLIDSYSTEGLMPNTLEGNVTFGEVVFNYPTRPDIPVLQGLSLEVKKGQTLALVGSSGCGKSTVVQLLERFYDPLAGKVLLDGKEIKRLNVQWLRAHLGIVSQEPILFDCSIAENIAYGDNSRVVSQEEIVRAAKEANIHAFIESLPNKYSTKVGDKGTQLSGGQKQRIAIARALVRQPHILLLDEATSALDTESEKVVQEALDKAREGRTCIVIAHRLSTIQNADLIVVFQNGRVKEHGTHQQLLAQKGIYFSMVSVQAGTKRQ
Series [5] is described as follows: Metabolite analysis of arterial plasma (unmetabolized parent fraction), column-switching HPLC. It counts as in vivo, rhesus monkeys (Macaca mulatta). The settings on record: mean ± SD. Here is the method:
Arterial blood samples were collected for each scan to measure the input function. Metabolite analysis was performed using an automatic column-switching high-performance liquid chromatography system ([22]) for 7 arterial blood samples collected at 5, 15, 30, 60, 90, 120, and 180 min. The radiometabolite-corrected arterial plasma input function was obtained by calculating the product of the fitted total plasma (fitted with a sum of exponentials) and unmetabolized parent fraction curves (using an integrated γ-function ([23])).

Series [6] is described as follows: Plasma tiagabine concentration by mass spectrometry. The settings on record: 0.5 mg/kg tiagabine i.v.; 30–190 min after tiagabine injection. Type of series: in vivo, rhesus monkeys (Macaca mulatta). Here is the method: For 8 of the 10 blocking scans, venous blood samples were acquired at 30, 60, 90, 120, 160, and 190 min after injection of tiagabine, in addition to 1 control sample before tiagabine injection, to measure its concentration using mass spectrometry (described in the supplemental materials).

On the set-up of series [7]: method as in PMID 9530548. The settings on record: humans, 24-mg single oral dose; cited from earlier work.
Series [8] relates to GAT-1. Set-up: method as in PMID 10642842. Particulars: in vitro, human brain postmortem; cited from earlier work.
Another series concerns GABA. Particulars: vervet brain in vivo; cited from earlier work.
[9] abbreviates: after blocking with tiagabine 0.5 mg/kg.

Each structure is given as a SMILES string. “And” between values parts separate entries of the source, which are not always exact repeats. Identical values can stand only once.

T1 sequence (H9ELS5 1-599): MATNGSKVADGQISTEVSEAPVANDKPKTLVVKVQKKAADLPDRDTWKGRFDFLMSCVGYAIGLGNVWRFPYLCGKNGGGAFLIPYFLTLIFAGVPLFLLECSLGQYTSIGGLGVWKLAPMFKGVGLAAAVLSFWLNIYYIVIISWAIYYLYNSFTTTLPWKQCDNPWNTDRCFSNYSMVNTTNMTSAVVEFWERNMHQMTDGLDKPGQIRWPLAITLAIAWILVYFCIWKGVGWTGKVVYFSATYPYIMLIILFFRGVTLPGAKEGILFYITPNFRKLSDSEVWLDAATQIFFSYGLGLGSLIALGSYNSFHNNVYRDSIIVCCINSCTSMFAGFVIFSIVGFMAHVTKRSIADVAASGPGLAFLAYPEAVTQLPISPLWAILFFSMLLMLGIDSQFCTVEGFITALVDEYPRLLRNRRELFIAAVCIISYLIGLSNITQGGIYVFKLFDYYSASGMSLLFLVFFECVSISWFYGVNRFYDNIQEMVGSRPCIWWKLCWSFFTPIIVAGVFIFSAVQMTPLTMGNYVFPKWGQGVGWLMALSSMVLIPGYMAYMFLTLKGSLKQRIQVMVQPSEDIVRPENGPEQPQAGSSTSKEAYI

As to `CCOC(=O)c1ncn2c1CN([11CH3])C(=O)c1cc(N=[N+]=[N-])ccc1-2` [[^11C]Ro15-4513], in [1], the “Affinity” value is “high affinity”.
As for `Cc1ccccc1C(=COCCN1CCCC(C(=O)O)C1)c1ccccc1[18F]` (stereo not shown) [^18F-GATT-31], the VND on GAT-1 [2] (monkey 1) is 0.31 mL/cm^3; at GAT-1 [2] (monkey 2) it was −0.61 mL/cm^3 and −0.61 ^* mL/cm^3; on GAT-1 [2] (monkey 3), 1.02 mL/cm^3. Also, the Occupancy at GAT-1 [2] (monkey 1) was 69%; at GAT-1 [2] (monkey 2), 22%; at GAT-1 [2] (monkey 3), 70%. Besides, the Free fraction in [3] was 12.4 ± 1.8%. The entries for the “Median VT across ROIs” value on GAT-1 [4] (setting [9]) and at GAT-1 [4] (baseline) were 1.5 mL/cm^3 and 2.8 mL/cm^3, respectively. Further, the “Efflux by PgP (category)” value on P-glycoprotein (PgP) is “low efflux by PgP”. In addition, the Parent compound in series [5] (30 min) was 87 ± 3%; in series [5] (90 min) it was 76 ± 6%; in series [5] (180 min) it was 63% and 63 ± 11%.
In the case of `Cc1ccccc1C(=COCCN1CCCC(C(=O)O)C1)c1ccc([18F])cc1` (stereo not shown) [^18F-GATT-34], the Free fraction in series [3] is listed as 10.8 ± 0.4%. Besides, the “Median VT across ROIs” value at GAT-1 [4] (setting [9]) worked out at 1.3 mL/cm^3; on GAT-1 [4] (baseline) it was 1.5 mL/cm^3. For the same compound, the “Blocking effect of tiagabine on VT” value on GAT-1 [4] (tiagabine 0.5 mg/kg) was “small”. The results for the Parent compound in series [5] (30 min) and in [5] (90 min) were 91 ± 2% and 83 ± 2%, respectively.
In the case of `O=C(O)C1CCCN(CCC=C(c2ccccc2[18F])c2ccccc2Cl)C1` (stereo not shown) [^18F-GATT-39], the Free fraction in series [3] was found to be 10.5 ± 1.0%. The “K1 values” at GAT-1 [4] (1TCM influx constant) is “especially low”. Further, the “Median VT across ROIs” value at GAT-1 [4] (setting [9]) stood at 0.9 mL/cm^3; on GAT-1 [4] (baseline), 1.6 mL/cm^3. In addition, the Parent compound in [5] (30 min) is reported as 95 ± 4%; in [5] (90 min), 85 ± 9%.
In the case of `Cc1ccsc1C(=CCCN1CCC[C@@H](C(=O)O)C1)c1sccc1C` [tiagabine, (R)-1-[4,4-bis(3-methyl-2-thienyl)-3-butenyl]-3-piperidinecarboxylic acid], the Average plasma concentration in [6] amounted to 385 ± 70 µg/L. Besides, in series [7], the Elimination half-life is recorded as 7.3 h and the “Plasma concentration peak value” was 552 ng/mL. For the same compound, the “Selectivity for GAT-1” value in the series on GAT-1 [8] is “excellent selectivity for GAT-1”. Further, the “Effect on GABA in brain” value in the series on GABA was “increase GABA”.
